Data: PMC9712021 (Advances in Pharmacological and Pharmaceutical Sciences, 2022)

How the values were obtained:
[1] = test system: S. cerevisiae strains (SODWT, Sod1Δ, Sod2Δ, Cat1Δ, Sod1/Sod2Δ, Cat1Δ/Sod1Δ); assay: In vivo antioxidant (S. cerevisiae) test, all strains tested; format: cell-based, Saccharomyces cerevisiae; conditions: all strains and concentrations tested
Source text: (§1) The central disc test was done according to the method presented by Islam et al.. Superoxide dismutase (CuZnSOD-Sod1) is a cytosolic enzyme that is faulty in strain EG118, whereas mitochondrial SOD is faulty in strain EG110 (MnSOD-Sod2). The strain EG133 has both Sod1 and Sod2 defects, while EG223 has a cytosolic catalase deficiency (Cat1). While EG103 is a competent strain that is identical to the wild-type (SODWT), EG is a dual isogenic strain for the Sod1 and Cat1 genes.

[2] = test system: S. cerevisiae EG223 (Cat1∆); assay: S. cerevisiae central disc test, oxidative damage, strain Cat1∆; format: cell-based, Saccharomyces cerevisiae
Source text: as §1

[3] = set-up: method as in Oliveira [41]; conditions: concentrations from 7.83 to 500 μg/mL; ref Oliveira [41]; cited from earlier work
[4] = test system: S. cerevisiae EG118 (Sod1∆); assay: S. cerevisiae central disc test, oxidative damage, strain Sod1∆; format: cell-based, Saccharomyces cerevisiae
Source text: as §1

[5] = DPPH radical scavenging capacity assay; conditions: 0.9–14.4 μg/mL; standard Trolox
Protocol: The DPPH assay was performed according to the method described by Abderrahim et al.. Briefly, a solution containing 300 μL of monoterpenes (0.9–14.4 μg/mL) was added to 2.7 mL of DPPH^• solution (0.5 mM in ethanol). After 30 min, the absorbance was measured using a spectrophotometer (Shimadzu, Japan) at 517 nm.

[6] = test system: S. cerevisiae EG (Sod1∆Cat1∆); assay: S. cerevisiae central disc test, oxidative damage, strain Sod1∆Cat1∆; format: cell-based, Saccharomyces cerevisiae
Source text: as §1

[7] = test system: S. cerevisiae EG103 (SODWT); assay: S. cerevisiae central disc test, oxidative damage, strain SODWT; format: cell-based, Saccharomyces cerevisiae; set-up: unit not given here
Source text: as §1

[8] = test system: S. cerevisiae EG110 (Sod2∆); assay: S. cerevisiae central disc test, oxidative damage, strain Sod2∆; format: cell-based, Saccharomyces cerevisiae
Source text: as §1

[9] = Hemolytic activity in mice erythrocytes; format: cell-based, Mus musculus; conditions: male, Swiss albino, mouse, pH 7.4, 37°C, 2 h
Protocol: This test was performed on adult Swiss albino mouse (Mus musculus) erythrocytes. The mouse was collected from the Central Animal House of the Federal University of Piaui, Brazil. It was allowed free access to standard food and water ad libitum and was kept under controlled lighting (12 h dark/light cycles) at 24 ± 2°C. Blood was collected from the retro-orbital plexus of the mouse (male, 24 gm body weight). Hemolytic activity in mouse erythrocytes was performed, according to Jamialahmadi et al..

[10] = test system: S. cerevisiae EG133 (Sod1∆Sod2∆); assay: S. cerevisiae central disc test, oxidative damage, strain Sod1∆Sod2∆; format: cell-based, Saccharomyces cerevisiae
Source text: as §1

In the case of `C=CCc1ccc(OC)cc1` [Estragole, estragole], the “percentage modulation of oxidative damage caused by the stressor H2O2” value [1] is reported as “more than 60%”, the oxidative damage ([2]; 0.9 μg/mL) is reported as 3.00 ± 1.41 and the oxidative damage ([2]; 1.8 μg/mL) is reported as 4.50 ± 0.70. It also gave an oxidative damage ([2]; 7.2 μg/mL) of 1.50 ± 2.12, an oxidative damage ([2]; 14.4 μg/mL) of 4.50 ± 2.12 and an oxidative damage ([2]; 32 μg/mL) of 3.00 ± 1.41. The oxidative damage ([2]; 64 μg/mL) was 7.00 ± 1.41^∗, the oxidative damage ([2]; 128 μg/mL) was 2.50 ± 0.70 and the oxidative damage ([2]; 3.6 mg/mL) was 4.00 ± 1.41. The oxidative damage ([2]; 256 mg/mL) was 3.00 ± 1.41, the oxidative damage ([2]; 500 mg/mL) was 4.50 ± 0.70 and the antioxidant capacity [3] was “mild antioxidant capacity”. For the same compound, the oxidative damage ([4]; 0.9 μg/mL) was 2.00 ± 1.41, the oxidative damage ([4]; 1.8 μg/mL) was 1.50 ± 0.70 and the oxidative damage ([4]; 7.2 μg/mL) was 2.00 ± 1.41. The oxidative damage ([4]; 14.4 μg/mL) was 2.00 ± 0.54, the oxidative damage ([4]; 32 μg/mL) was 2.50 ± 0.70 and the oxidative damage ([4]; 64 μg/mL) was 2.50 ± 0.70. The oxidative damage ([4]; 128 μg/mL) was 2.50 ± 0.70, the oxidative damage ([4]; 3.6 mg/mL) was 2.50 ± 0.70 and the oxidative damage ([4]; 256 mg/mL) was 2.50 ± 0.70. For the same compound, the oxidative damage ([4]; 500 mg/mL) was 1.50 ± 0.70, the “DPPH radical scavenging activity” value [5] was “highest scavenging activity” and the oxidative damage ([6]; 0.9 μg/mL) was 3.50 ± 0.70. For the same compound, the oxidative damage ([6]; 1.8 μg/mL) was 4.00 ± 2.82, the oxidative damage ([6]; 7.2 μg/mL) was 3.50 ± 0.70 and the oxidative damage ([6]; 14.4 μg/mL) was 5.00 ± 0.0. It also gave an oxidative damage ([6]; 32 μg/mL) of 4.50 ± 0.70, an oxidative damage ([6]; 64 μg/mL) of 3.00 ± 1.41 and an oxidative damage ([6]; 128 μg/mL) of 4.50 ± 2.12. For the same compound, the oxidative damage ([6]; 256 μg/mL) was 3.00 ± 2.82, the oxidative damage ([6]; 3.6 mg/mL) was 4.00 ± 1.41 and the oxidative damage ([6]; 500 mg/mL) was 3.50 ± 0.70. For the same compound, the oxidative damage ([7]; 0.9 μg/mL) was 2.00 ± 0.54, the oxidative damage ([7]; 1.8 μg/mL) was 1.50 ± 0.70 and the oxidative damage ([7]; 7.2 μg/mL) was 2.00 ± 1.41. It also gave an oxidative damage ([7]; 14.4 μg/mL) of 2.50 ± 0.70, an oxidative damage ([7]; 32 μg/mL) of 2.00 ± 0.54 and an oxidative damage ([7]; 64 μg/mL) of 2.00 ± 0.54. For the same compound, the oxidative damage ([7]; 128 μg/mL) was 1.50 ± 0.70, the oxidative damage ([7]; 3.6 mg/mL) was 1.00 ± 1.41 and the oxidative damage ([7]; 256 mg/mL) was 3.50 ± 0.70. The oxidative damage ([7]; 500 mg/mL) was 1.50 ± 0.70, the oxidative damage ([8]; 0.9 μg/mL) was 3.00 ± 1.41 and the oxidative damage ([8]; 1.8 μg/mL) was 3.50 ± 0.70. For the same compound, the oxidative damage ([8]; 7.2 μg/mL) was 2.00 ± 0.54, the oxidative damage ([8]; 14.4 μg/mL) was 3.50 ± 0.70 and the oxidative damage ([8]; 32 μg/mL) was 2.00 ± 0.54. The oxidative damage ([8]; 64 μg/mL) was 3.50 ± 0.70, the oxidative damage ([8]; 128 μg/mL) was 3.50 ± 0.70 and the oxidative damage ([8]; 3.6 mg/mL) was 2.00 ± 0.54. For the same compound, the oxidative damage ([8]; 256 mg/mL) was 2.50 ± 0.70, the oxidative damage ([8]; 500 mg/mL) was 3.00 ± 1.41 and the hemolysis at 2 h, 31.25 μg/mL ([9]; 31.25 μg/mL) was 1.67 ± 0.35%. The hemolysis at 2 h, 62.5 μg/mL ([9]; 62.5 μg/mL) was 3.49 ± 0.26%, the hemolysis at 2 h, 125 μg/mL ([9]; 125 μg/mL) was 4.45 ± 0.47% and the hemolysis at 2 h, 250 μg/mL ([9]; 250 μg/mL) was 8.21 ± 0.35%. The hemolysis at 2 h, 500 μg/mL ([9]; 500 μg/mL) was 10.3 ± 1.35%, the oxidative damage ([10]; 0.9 μg/mL) was 3.50 ± 0.70 and the oxidative damage ([10]; 1.8 μg/mL) was 3.50 ± 0.70. It also gave an oxidative damage ([10]; 7.2 μg/mL) of 2.50 ± 0.70, an oxidative damage ([10]; 14.4 μg/mL) of 3.50 ± 0.70 and an oxidative damage ([10]; 32 μg/mL) of 2.50 ± 0.70. The oxidative damage ([10]; 64 μg/mL) was 1.50 ± 0.70, the oxidative damage ([10]; 128 μg/mL) was 3.00 ± 1.41 and the oxidative damage ([10]; 3.6 mg/mL) was 2.50 ± 0.70. It also gave an oxidative damage ([10]; 256 mg/mL) of 2.50 ± 2.12 and an oxidative damage ([10]; 500 mg/mL) of 2.50 ± 0.70.
